# Reference: US11021470B2, “2-substituted quinazoline compounds comprising a substituted heterocyclic group and methods of use thereof” (Araxes Pharma LLC, priority 2015, dated 2021)
# Molecular target: T1, KRAS G12C 1-169, his-tagged protein, GDP-loaded (Homo sapiens, UniProt P01116, G12C)
# T1 construct: KRAS G12C 1-169, his-tagged protein, GDP-loaded
# Test: KRAS G12C covalent binding (% modification) by mass spectrometry, ten or three minute incubation
# Settings: covalent binding to KRAS G12C after a ten minute incubation period
# In short: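 GDP-loaded protein in 20 mM Hepes, 150 mM NaCl, 1 mM MgCl2 was incubated with compound (final 100, 30 or 10 μM; 2% DMSO) at room temperature, then quenched with formic acid. Intact-protein LC-MS with charge-envelope deconvolution gave masses and intensities of modified and unmodified species.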
row,Compound,Binding %
1,"C=CC(=O)N1C[C@H](C)N(c2nc(OCCN(CC)CC)nc3c(F)c(-c4c(O)cccc4F)c(Cl)cc23)C[C@H]1C (atropisomer, axis not shown) [Compound 74, 1-((2R,5S)-4-((R)-6-chloro-2-(2-(diethylamino)ethoxy)-8-fluoro-7-(2-fluoro-6-hydroxyphenyl)quinazolin-4-yl)-2,5-dimethylpiperazin-1-yl)prop-2-en-1-one]",++ (++ indicates binding activity from 50 to 90%)
2,"C=CC(=O)N1C[C@@H](C)N(c2nc(N3CC(N(C)C)C3)nc3c(F)c(-c4c(O)cccc4F)c(Cl)cc23)C[C@@H]1C [Compound 81, 1-((2S,5R)-4-(6-chloro-2-(3-(dimethylamino)azetidin-1-yl)-8-fluoro-7-(2-fluoro-6-hydroxyphenyl)quinazolin-4-yl)-2,5-dimethylpiperazin-1-yl)prop-2-en-1-one]",+ (+ indicates binding activity greater than 0% and up to 50%)

# Same assay, conditions: covalent binding to KRAS G12C, % modification after a three minute incubation period
row,Compound,Binding %
1,"C=CC(=O)N1C[C@H](C)N(c2nc(OCC(C)(C)C#N)nc3c(F)c(-c4c(O)cccc4F)c(Cl)cc23)C[C@H]1C (atropisomer, axis not shown) [Compound 282, 3-((4-((2S,5R)-4-acryloyl-2,5-dimethylpiperazin-1-yl)-6-chloro-8-fluoro-7-((S)-2-fluoro-6-hydroxyphenyl)quinazolin-2-yl)oxy)-2,2-dimethylpropanenitrile]",++ (++ indicates binding activity from 50 to 90%)
2,"C=CC(=O)N1C[C@H](C)N(c2nc(N3CC(N(C)C)C3)nc3c(F)c(-c4cc(O)cc5ccccc45)c(C(F)(F)F)cc23)C[C@H]1C (atropisomer, axis not shown) [Compound 256, 1-((2R,5S)-4-(2-(3-(dimethylamino)azetidin-1-yl)-8-fluoro-7-((S)-3-hydroxynaphthalen-1-yl)-6-(trifluoromethyl)quinazolin-4-yl)-2,5-dimethylpiperazin-1-yl)prop-2-en-1-one]",+ (+ indicates binding activity greater than 0% and up to 50%)
3,"C=CC(=O)N1C[C@H](C)N(c2nc(N3CC(N(C)C)C3)nc3c(F)c(-c4c(C)ccc5[nH]nc(I)c45)c(Cl)cc23)C[C@H]1C [Compound 286, 1-((2R,5S)-4-(6-chloro-2-(3-(dimethylamino)azetidin-1-yl)-8-fluoro-7-(3-iodo-5-methyl-1H-indazol-4-yl)quinazolin-4-yl)-2,5-dimethylpiperazin-1-yl)prop-2-en-1-one]",+++ (+++ indicates binding activity greater than 90%)
4,"C=CC(=O)N1C[C@H](C)N(c2nc(N3CC(N(C)C)C3)nc3c(F)c(-c4c(C)[nH]c5ccccc45)c(Cl)cc23)C[C@H]1C [Compound 287, 1-((2R,5S)-4-(6-chloro-2-(3-(dimethylamino)azetidin-1-yl)-8-fluoro-7-(2-methyl-1H-indol-3-yl)quinazolin-4-yl)-2,5-dimethylpiperazin-1-yl)prop-2-en-1-one]",+ (+ indicates binding activity greater than 0% and up to 50%)
5,"C=CC(=O)N1C[C@H](C)N(c2nc(N3CC(N(C)C)C3)nc3c(F)c(-c4c[nH]c5c(F)cccc45)c(Cl)cc23)C[C@H]1C [Compound 294, 1-((2R,5S)-4-(6-chloro-2-(3-(dimethylamino)azetidin-1-yl)-8-fluoro-7-(7-fluoro-1H-indol-3-yl)quinazolin-4-yl)-2,5-dimethylpiperazin-1-yl)prop-2-en-1-one]",+ (+ indicates binding activity greater than 0% and up to 50%)
6,"C=CC(=O)N1C[C@H](C)N(c2nc(N3CC(N(C)C)C3)nc3c(F)c(-c4n[nH]c5ccccc45)c(Cl)cc23)C[C@H]1C [Compound 295, 1-((2R,5S)-4-(6-chloro-2-(3-(dimethylamino)azetidin-1-yl)-8-fluoro-7-(1H-indazol-3-yl)quinazolin-4-yl)-2,5-dimethylpiperazin-1-yl)prop-2-en-1-one]",+ (+ indicates binding activity greater than 0% and up to 50%)
7,"C=CC(=O)N1C[C@H](C)N(c2nc(N3CC(N(C)C)C3)nc3c(F)c(-c4c(O)cccc4F)c(C(F)(F)F)cc23)C[C@H]1C (atropisomer, axis not shown) [Compound 270, 1-((2R,5S)-4-(2-(3-(dimethylamino)azetidin-1-yl)-8-fluoro-7-((R)-2-fluoro-6-hydroxyphenyl)-6-(trifluoromethyl)quinazolin-4-yl)-2,5-dimethylpiperazin-1-yl)prop-2-en-1-one]",+++ (+++ indicates binding activity greater than 90%)
8,"C=CC(=O)N1C[C@H](C)N(c2nc(N3CC(N(C)C)C3)nc3c(F)c(-c4c(C)ccc5[nH]ccc45)c(Cl)cc23)C[C@H]1C [Compound 266, 1-((2R,5S)-4-(6-chloro-2-(3-(dimethylamino)azetidin-1-yl)-8-fluoro-7-(5-methyl-1H-indol-4-yl)quinazolin-4-yl)-2,5-dimethylpiperazin-1-yl)prop-2-en-1-one]",+++ (+++ indicates binding activity greater than 90%)
9,"C=CC(=O)N1C[C@H](C)N(c2nc(N3CC(N(C)CCCCCN=[N+]=[N-])C3)nc3c(F)c(-c4c(O)cccc4F)c(Cl)cc23)C[C@H]1C [Compound 301, 1-((2R,5S)-4-(2-(3-((5-azidopentyl)(methyl)amino)azetidin-1-yl)-6-chloro-8-fluoro-7-(2-fluoro-6-hydroxyphenyl)quinazolin-4-yl)-2,5-dimethylpiperazin-1-yl)prop-2-en-1-one]",++ (++ indicates binding activity from 50 to 90%)
10,"C=CC(=O)N1C[C@H](C)N(c2nc(OCCN3CC(F)(F)C3)nc3c(F)c(-c4c(O)cccc4F)c(Cl)cc23)C[C@H]1C [Compound 89, 1-((2R,5S)-4-(6-chloro-2-(2-(3,3-difluoroazetidin-1-yl)ethoxy)-8-fluoro-7-((R)-2-fluoro-6-hydroxyphenyl)quinazolin-4-yl)-2,5-dimethylpiperazin-1-yl)prop-2-en-1-one]",+ (+ indicates binding activity greater than 0% and up to 50%)
11,"C=CC(=O)N1C[C@H](C)N(c2nc(N3CC(N(C)C)C3)nc3c(F)c(-c4c(C)ccc5[nH]nc(N)c45)c(Cl)cc23)C[C@H]1C [Compound 298, 1-((2R,5S)-4-(7-(3-amino-5-methyl-1H-indazol-4-yl)-6-chloro-2-(3-(dimethylamino)azetidin-1-yl)-8-fluoroquinazolin-4-yl)-2,5-dimethylpiperazin-1-yl)prop-2-en-1-one]",++ (++ indicates binding activity from 50 to 90%)
12,"C=CC(=O)N1C[C@H](C)N(c2nc(N3CC(N(C)C)C3)nc3c(F)c(-c4c(F)ccc5cn[nH]c45)c(Cl)cc23)C[C@H]1C [Compound 261, 1-((2R,5S)-4-(6-chloro-2-(3-(dimethylamino)azetidin-1-yl)-8-fluoro-7-(6-fluoro-1H-indazol-7-yl)quinazolin-4-yl)-2,5-dimethylpiperazin-1-yl)prop-2-en-1-one]",+++ (+++ indicates binding activity greater than 90%)
13,"C=CC(=O)N1C[C@H](C)N(c2nc(OC3CCN(C)CC3)nc3c(F)c(-c4cc(O)cc5ccccc45)c(Cl)cc23)C[C@H]1C [Compound 245, 1-((2R,5S)-4-(6-chloro-8-fluoro-7-(3-hvdroxynaphthalen-1-yl)-2-((1-methylpiperidin-4-yl)oxy)quinazolin-4-yl)-2,5-dimethylpiperazin-1-yl)prop-2-en-1-one]",+++ (+++ indicates binding activity greater than 90%)
14,"C=CC(=O)N1C[C@H](C)N(c2nc(N3CC(N(C)C)C3)nc3c(F)c(-c4c(C)ccc5[nH]ncc45)c(Cl)cc23)C[C@H]1C (atropisomer, axis not shown) [Compound 130, 1-((2R,5S)-4-(6-chloro-2-(3-(dimethylamino)azetidin-1-yl)-8-fluoro-7-((R)-5-methyl-1H-indazol-4-yl)quinazolin-4-yl)-2,5-dimethylpiperazin-1-yl)prop-2-en-1-one]",+++ (+++ indicates binding activity greater than 90%)
15,"C=CC(=O)N1C[C@H](C)N(c2nc(N3CC(N(C)C)C3)nc3c(F)c(-c4c(C)ccc5[nH]nc(C(N)=O)c45)c(Cl)cc23)C[C@H]1C [Compound 296, 4-(4-((2S,5R)-4-acryloyl-2,5-dimethylpiperazin-1-yl)-6-chloro-2-(3-(dimethylamino)azetidin-1-yl)-8-fluoroquinazolin-7-yl)-5-methyl-1H-indazole-3-carboxamide]",++ (++ indicates binding activity from 50 to 90%)
16,"C=CC(=O)N1C[C@H](C)N(c2nc(OCCn3ccnc3C)nc3c(F)c(-c4c(O)cccc4F)c(Cl)cc23)C[C@H]1C (atropisomer, axis not shown) [Compound 264, 1-((2R,5S)-4-(6-chloro-8-fluoro-7-((S)-2-fluoro-6-hydroxyphenyl)-2-(2-(2-methyl-1H-imidazol-1-yl)ethoxy)quinazolin-4-yl)-2,5-dimethylpiperazin-1-yl)prop-2-en-1-one]",+++ (+++ indicates binding activity greater than 90%)
17,"C=CC(=O)N1C[C@H](C)N(c2nc(OCCc3cncnc3)nc3c(F)c(-c4c(O)cccc4F)c(Cl)cc23)C[C@H]1C (atropisomer, axis not shown) [Compound 262, 1-((2R,5S)-4-(6-chloro-8-fluoro-7-((S)-2-fluoro-6-hydroxyphenyl)-2-(2-(pyrimidin-5-yl)ethoxy)quinazolin-4-yl)-2,5-dimethylpiperazin-1-yl)prop-2-en-1-one]",+++ (+++ indicates binding activity greater than 90%)
18,"C=CC(=O)N1CCN(c2nc(OCCc3ncccn3)nc3c(F)c(-c4c(O)cccc4F)c(Cl)cc23)C[C@H]1C (atropisomer, axis not shown) [Compound 268, 1-((R)-4-(6-chloro-8-fluoro-7-((S)-2-fluoro-6-hydroxyphenyl)-2-(2-(pyrimidin-2-yl)ethoxy)quinazolin-4-yl)-2-methylpiperazin-1-yl)prop-2-en-1-one]",+++ (+++ indicates binding activity greater than 90%)
